What was measured:
[1] = Breath test using 13C-amino acid in fed and fasted ZDF lean rats; details: 50 μmol/kg orally; for time for which the tendency (Δ^13C higher in fasted than in fed state) continued: expired air collected up to 60 minutes
Method: ZDF lean rats were placed in the fed/fasted state and the light-dark cycle as described above. 1-^13C-leucine, 1-^13C-alanine, or 1-^13C-glutamic acid (Cambridge Isotope Laboratories, Inc (Andover, Mass., USA)) dissolved in physiological saline was administered orally at 50 μmol/kg each (n=4 for each amino acid) at 13:00 of Day 2 in the fed state or 13:00 of Day 3 in the fasted state. Expired air samples were collected before the administration (0 minutes) and at several time points up to 60 minutes after the administration and Δ^13C (%) values were measured using a mass spectrometer for breath analysis (“ABCA” Sercon).

[2] = Breath test using 13C-alanine in ZDF fatty rats F1 and F2; details: fed, 50 μmol/kg orally, from the start of the administration
Method: ZDF fatty rats F1 and F2 mentioned above were placed in the light-dark cycle as described above. 1-^13C-alanine dissolved in physiological saline was administered orally at 50 μmol/kg. Expired air samples were collected before the administration (0 minutes) and at several time points up to 60 minutes after the administration and Δ^13C (%) values were measured using a mass spectrometer for breath analysis (“ABCA” Sercon).

[3] = ZDF fatty rats (diabetes model), fed, 50 μmol/kg orally, from the start of the administration to the end of the measurement (60 minutes)
Method: ZDF fatty rats F1, F2, and F3 mentioned above were placed in the light-dark cycle as described above. 1-^13C-glutamic acid dissolved in physiological saline was administered orally at 50 μmol/kg. Expired air samples were collected before the administration (0 minutes) and at several time points up to 60 minutes after the administration and Δ^13C (%) values were measured using a mass spectrometer for breath analysis (“ABCA” Sercon).

Row | Structure (SMILES) | time for which the tendency (Δ^13C higher in fasted than in fed state) continued [1] | time after the administration up to which Δ^13C was higher in F1 rat than in F2 rat [2] | Δ^13C (%) values of expired air, fasted state compared with fed state ([1]; 10 minutes after the administration, n=4 for each amino acid) | Δ^13C (%) values of expired air, F1 rat (suspected sarcopenia) compared with F2 and F3 rats [3]
1 | C[C@H](N)[13C](=O)O [1-^13C-alanine] | ~20 min | about 50 minutes |  | 
2 | N[C@@H](CCC(=O)O)[13C](=O)O [1-^13C-glutamic acid] | ~40 min |  | higher in the fasted state than in the fed state | higher in F1 rat than in F2 and F3 rats
3 | CC(C)C[C@H](N)[13C](=O)O [1-^13C-leucine] | about 45 minutes |  |  | 
